Reference: patent US11883444B2, “Inhibition of enteric infection through the modulation of microbiota” (priority 2017, dated 2024)

Assays:
Format in all cases: in vivo
[1] = tested on: Clostridium cluster IV and XIVa; experiment: Intestinal colonization of Clostridia in GF mice, qPCR of fecal DNA; settings: metabolite in drinking water of GF mice gavaged with Clostridia consortium; FIG. 4D, 9C
C. rodentium = C. rodentium oral infection of mice: pathogen loads in feces; settings: adult mice, vancomycin in drinking water; day 25-30 after infection; FIG. 2B
Experimental: (§1) Reconstitution of GF mice with cecal contents and defined bacteria. Cecal contents from single neonatal and 7-week old SPF mice were diluted into 50 ml (per one adult mouse) or 5 ml (per one 4, 12, 16-day old mouse) of PBS, and passed through a 70 μm cell strainer to eliminate clumps and debris under sterile conditions) under an atmosphere of 5% H2, 5% CO2 and 90% N2 in an anaerobic growth chamber (Coy Manufacturing, Grass Lake, MI). Then 200 μl of the suspension was processed by intragastric gavage into each of the recipient GF mice. Bacteroides species were anaerobically grown at 37° C. overnight in pre-reduced chopped-meat broth (Anaerobe systems, Morgan Hill, CA). E. coli were grown aerobically overnight in LB broth with shaking.
(§2) Enteric pathogen infection. Kanamycin (Km)-resistant and Streptomycin (Sm)-resistant Salmonella enterica serovar Typhimurium (S. Typhimurium) SL1344 ΔspiA was a gift from Dr. Denise Monack, Stanford University. Kanamycin (Km)-resistant wild-type Citrobacter rodentium strain DBS120 (pCRP1::Tn5) was a gift from Dr. David Schauer, Massachusetts Institute of Technology. […] Mice were infected by oral gavage with 0.2 ml of PBS containing approximately 5×10^7 CFU of S. Typhimurium, and 1×10^9 CFU of C. rodentium. […] Mouse survival was monitored for 7 days after infection. […]

S. Typhimurium ΔspiA = S. Typhimurium ΔspiA oral infection of mice: pathogen loads, cecal histology, survival
Experimental: as §1, §2

fecal microbiota = experiment: 16S rRNA gene analysis of the fecal microbiota; settings: adult mice; FIG. 7, FIG. 2D
Experimental: Fecal pellet DNA extraction and 16S rRNA gene sequencing and sequence curation. Fecal samples were freshly collected and DNA was extracted using the E.Z.N.A® stool DNA kit. Amplicons were generated of the V4 region within the 16S rRNA gene and the fragments were sequenced using an Illumina MiSeq (14). These sequences were curated using Mothur (v.1.35) (14, 15) and sequences were binned into operational taxonomic units (OTUs). Taxonomic assignments were determined using a naive Bayesian classifier with the Ribosomal Database Project (RDP) training set (version 10) requiring an 80% bootstrap confidence score (16). Treatment with vancomycin and SCFAs and special diet. Vancomycin (250 mg/L) was administered in the mouse drinking water for 7 days before S. Typhimurium and C. rodentium infection and the treatment was kept during the length of the experiment.

| Compound | enhanced colonization of Clostridia of IV and XIVa clusters [1] | higher C. rodentium pathogen loads in the feces vs untreated mice (C. rodentium) | increase of S. Typhimurium colonization in fecal and cecal contents (S. Typhimurium ΔspiA; adult mice, vancomycin in drinking water, day 1 after infection, FIG. 2C) | change of fecal microbiota composition (fecal microbiota) | reduction of intestinal loads of S. Typhimurium ΔspiA (S. Typhimurium ΔspiA; GF mice given succinate in drinking water and Clostridia consortium by gavage, FIG. 4E, F) |
| --- | --- | --- | --- | --- | --- |
| CC(O)C(=O)O (stereo not shown) [lactate] | not | – | – | – | – |
| CN[C@H](CC(C)C)C(=O)N[C@H]1C(=O)N[C@@H](CC(N)=O)C(=O)N[C@H]2C(=O)N[C@H]3C(=O)N[C@H](C(=O)N[C@H](C(=O)O)c4cc(O)cc(O)c4-c4cc3ccc4O)[C@H](O)c3ccc(c(Cl)c3)Oc3cc2cc(c3O[C@@H]2O[C@H](CO)[C@@H](O)[C@H](O)[C@H]2O[C@H]2C[C@](C)(N)[C@H](O)[C@H](C)O2)Oc2ccc(cc2Cl)[C@H]1O [vancomycin] | – | ~6 logs | 4 to 5 logs | depleted the microbiota of Clostridiales and Bacteroidales and increased the abundance of Enterobacteriaceae and Lactobacillaceae | – |
| O=C(O)CCC(=O)O [succinate] | 4 to 5 logs | – | – | – | ~100 fold |
| CC(=O)O [acetate] | not | – | – | – | – |
